According to PubChem BioAssay AID248 (DTP/NCI, 2004):
Toxic doses and inconclusive results are not listed.

Tested on: L1210 leukemia ip in BDF1 mice, survival T/C
Assay: NCI In Vivo Anticancer Drug Screen. Data for tumor model L1210 Leukemia (intraperitoneal) in B6D2F1 (BDF1) mice
Settings: endpoint: mean survival time, higher = longer survival
Outline: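 Tumor cells were implanted, animals were treated, and survival was followed. The result divides the treated measurement by the vehicle-control measurement.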

[1] = dose: 100.0 mg/kg/injection, schedule: Q01DX001 (ip), vehicle: other
[2] = dose: 200.0 mg/kg/injection, schedule: Q01DX001 (ip), vehicle: other
[3] = dose: 100.0 mg/kg/injection, schedule: Q01DX009 (ip), vehicle: saline
[4] = dose: 200.0 mg/kg/injection, schedule: Q01DX009 (ip), vehicle: saline
[5] = dose: 50.0 mg/kg/injection, schedule: Q01DX009 (ip), vehicle: Klucel (hydroxypropylcellulose) (HPC)
[6] = dose: 100.0 mg/kg/injection, schedule: Q01DX009 (ip), vehicle: Klucel (hydroxypropylcellulose) (HPC)
[7] = dose: 200.0 mg/kg/injection, schedule: Q01DX009 (ip), vehicle: Klucel (hydroxypropylcellulose) (HPC)
[8] = dose: 25.0 mg/kg/injection, schedule: Q04DX003 (ip), vehicle: Klucel (hydroxypropylcellulose) (HPC)
[9] = dose: 50.0 mg/kg/injection, schedule: Q04DX003 (ip), vehicle: Klucel (hydroxypropylcellulose) (HPC)
[10] = dose: 100.0 mg/kg/injection, schedule: Q04DX002 (ip), vehicle: saline with Tween-80
[11] = dose: 200.0 mg/kg/injection, schedule: Q04DX002 (ip), vehicle: saline with Tween-80
[12] = dose: 100.0 mg/kg/injection, schedule: Q04DX002 (ip), vehicle: Klucel (hydroxypropylcellulose) (HPC)
[13] = dose: 100.0 mg/kg/injection, schedule: Q01DX001 (ip), vehicle: saline
[14] = dose: 200.0 mg/kg/injection, schedule: Q01DX001 (ip), vehicle: saline
[15] = dose: 100.0 mg/kg/injection, schedule: Q04DX003 (ip), vehicle: Klucel (hydroxypropylcellulose) (HPC)
[16] = dose: 100.0 mg/kg/injection, schedule: Q01DX001 (ip), vehicle: carboxymethylcellulose (CMC)
[17] = dose: 200.0 mg/kg/injection, schedule: Q01DX001 (ip), vehicle: carboxymethylcellulose (CMC)

Structure (SMILES): CN1CCC(SC(=O)C(O)(c2ccccc2)c2ccccc2)CC1
- T/C (dose: 75.0 mg/kg/injection, schedule: Q01DX001 (ip), vehicle: saline): 94 % of control
- T/C (dose: 150.0 mg/kg/injection, schedule: Q01DX001 (ip), vehicle: saline): 95 % of control

Structure (SMILES): CCC1C(=O)OCc2c1cc(C(=O)OC)n(C)c2=O (configuration not stated)
- T/C (dose: 25.0 mg/kg/injection, schedule: Q01DX001 (ip), vehicle: other): 111 % of control
- T/C (dose: 50.0 mg/kg/injection, schedule: Q01DX001 (ip), vehicle: other): 108 % of control
- T/C [1]: 93 % of control
- T/C [2]: 93 % of control

Structure (SMILES): CCOC(=O)CC1(C)NC(=O)NC1=O (configuration not stated)
- T/C [3]: 104 % of control
- T/C [4]: 90 % of control
- T/C (dose: 400.0 mg/kg/injection, schedule: Q01DX009 (ip), vehicle: saline): 98 % of control

Structure (SMILES): C[N+](C)(C)CSSC[N+](C)(C)C
- T/C (dose: 12.5 mg/kg/injection, schedule: Q04DX003 (ip), vehicle: saline): 92 % of control
- T/C (dose: 25.0 mg/kg/injection, schedule: Q04DX003 (ip), vehicle: saline): 87 % of control
- T/C (dose: 50.0 mg/kg/injection, schedule: Q04DX003 (ip), vehicle: saline): 93 % of control

Structure (SMILES): CCN(CC)CCNc1cccc2sc3ccccc3c(=O)c12
- T/C [5]: 92 % of control
- T/C [6]: 94 % of control
- T/C [7]: 94 % of control
- T/C (dose: 400.0 mg/kg/injection, schedule: Q01DX009 (ip), vehicle: Klucel (hydroxypropylcellulose) (HPC)): 100 % of control

Structure (SMILES): Nc1nc(N=Nc2ccc(O)cc2)cc(=O)[nH]1
- T/C (dose: 50.0 mg/kg/injection, schedule: Q01DX009 (ip), vehicle: other): 102 % of control
- T/C (dose: 100.0 mg/kg/injection, schedule: Q01DX009 (ip), vehicle: other): 107 % of control
- T/C (dose: 100.0 mg/kg/injection, schedule: Q04DX002 (ip), vehicle: other): 105 % of control
- T/C (dose: 200.0 mg/kg/injection, schedule: Q01DX009 (ip), vehicle: other): 94 % of control
- T/C (dose: 200.0 mg/kg/injection, schedule: Q04DX002 (ip), vehicle: other): 105 % of control
- T/C (dose: 400.0 mg/kg/injection, schedule: Q01DX009 (ip), vehicle: other): 103 % of control
- T/C (dose: 400.0 mg/kg/injection, schedule: Q04DX002 (ip), vehicle: other): 99 % of control

Structure (SMILES): CC1(C)C(=O)N(Br)C(=O)N1Br
- T/C (dose: 12.5 mg/kg/injection, schedule: Q04DX003 (ip), vehicle: Klucel (hydroxypropylcellulose) (HPC)): 92 % of control
- T/C [8]: 103 % of control
- T/C [9]: 103 % of control

Structure (SMILES): c1ccc(-c2cn[nH]c2-c2ccccc2)cc1
- T/C [10]: 103 % of control
- T/C [11]: 100 % of control
- T/C (dose: 400.0 mg/kg/injection, schedule: Q04DX002 (ip), vehicle: saline with Tween-80): 106 % of control

Structure (SMILES): NC(N)=NN=C1c2ccccc2-c2ccccc21
- T/C (dose: 1.0 mg/kg/injection, schedule: Q01DX Z (ip), vehicle: methylcellulose (MC)): 107 % of control
- T/C (dose: 2.0 mg/kg/injection, schedule: Q01DX Z (ip), vehicle: methylcellulose (MC)): 102 % of control
- T/C (dose: 4.0 mg/kg/injection, schedule: Q01DX Z (ip), vehicle: methylcellulose (MC)): 103 % of control
- T/C (dose: 4.0 mg/kg/injection, schedule: Q01DX Z (oral), vehicle: methylcellulose (MC)): 95 % of control
- T/C (dose: 8.0 mg/kg/injection, schedule: Q01DX Z (ip), vehicle: methylcellulose (MC)): 107 % of control
- T/C (dose: 16.0 mg/kg/injection, schedule: Q01DX Z (oral), vehicle: methylcellulose (MC)): 107 % of control

Structure (SMILES): CCSSCC(NC(=O)OC(C)(C)C)C(=O)O (configuration not stated)
- T/C (dose: 50.0 mg/kg/injection, schedule: Q04DX003 (ip), vehicle: other): 97 % of control
- T/C [1]: 101 % of control
- T/C (dose: 100.0 mg/kg/injection, schedule: Q04DX003 (ip), vehicle: other): 94 % of control
- T/C [2]: 97 % of control
- T/C (dose: 200.0 mg/kg/injection, schedule: Q04DX003 (ip), vehicle: other): 97 % of control

Structure (SMILES): CCSC1C(O)C(CO)OC1n1ccc(=O)[nH]c1=O (configuration not stated)
- T/C (dose: 100.0 mg/kg/injection, schedule: Q01DX005 (ip), vehicle: saline): 92 % of control
- T/C (dose: 200.0 mg/kg/injection, schedule: Q01DX005 (ip), vehicle: saline): 101 % of control

Structure (SMILES): CCOC(=O)CNc1ccc(Br)cc1
- T/C [12]: 108 % of control
- T/C (dose: 200.0 mg/kg/injection, schedule: Q04DX002 (ip), vehicle: Klucel (hydroxypropylcellulose) (HPC)): 108 % of control

Structure (SMILES): CC(=O)OC1CCC2(C)C(CCC3C2CCC2(C)C3C(c3ccccc3Cl)C3C=NN(c4ccccc4)C32C(=O)c2ccccc2)C1 (configuration not stated)
- T/C (dose: 25.0 mg/kg/injection, schedule: Q04DX002 (ip), vehicle: Klucel (hydroxypropylcellulose) (HPC)): 97 % of control
- T/C (dose: 50.0 mg/kg/injection, schedule: Q04DX002 (ip), vehicle: Klucel (hydroxypropylcellulose) (HPC)): 94 % of control
- T/C [12]: 94 % of control

Structure (SMILES): Cc1nnc2c([N+](=O)[O-])cccn12
- T/C [13]: 98 % of control
- T/C [14]: 103 % of control

Structure (SMILES): CCOC(=O)C(C)(Cc1c(C)cc(C)c(CC(C)(C(=O)OCC)C(=O)OCC)c1C)C(=O)OCC
- T/C (dose: 25.0 mg/kg/injection, schedule: Q01DX009 (ip), vehicle: Klucel (hydroxypropylcellulose) (HPC)): 95 % of control
- T/C [8]: 98 % of control
- T/C [5]: 91 % of control
- T/C [9]: 96 % of control
- T/C [6]: 96 % of control
- T/C [15]: 100 % of control

Structure (SMILES): Cc1nnc2ccnn2c1C
- T/C [13]: 96 % of control
- T/C [14]: 96 % of control
- T/C (dose: 400.0 mg/kg/injection, schedule: Q01DX001 (ip), vehicle: saline): 100 % of control

Structure (SMILES): O=[N+]([O-])c1cccc2cccc([N+](=O)[O-])c12
- T/C [3]: 91 % of control
- T/C (dose: 100.0 mg/kg/injection, schedule: Q04DX003 (ip), vehicle: saline): 103 % of control
- T/C [4]: 86 % of control
- T/C (dose: 200.0 mg/kg/injection, schedule: Q04DX003 (ip), vehicle: saline): 98 % of control
- T/C (dose: 400.0 mg/kg/injection, schedule: Q04DX003 (ip), vehicle: saline): 101 % of control

Structure (SMILES): CN(C)CCC(c1ccccc1)(c1ccccc1)c1ccccc1
- T/C (dose: 50.0 mg/kg/injection, schedule: Q01DX001 (ip), vehicle: carboxymethylcellulose (CMC)): 92 % of control
- T/C [16]: 92 % of control
- T/C [17]: 94 % of control

Structure (SMILES): O=c1[nH]cnc2c1ncn2Cc1ccccc1
- T/C (dose: 100.0 mg/kg/injection, schedule: Q01DX001 (ip), vehicle: saline with Tween-80): 104 % of control
- T/C (dose: 200.0 mg/kg/injection, schedule: Q01DX001 (ip), vehicle: saline with Tween-80): 102 % of control
- T/C (dose: 400.0 mg/kg/injection, schedule: Q01DX001 (ip), vehicle: saline with Tween-80): 96 % of control

Structure (SMILES): O=C(O)c1ccccc1/C=N/NC(=O)C(O)(c1ccccc1)c1ccccc1
- T/C [16]: 114 % of control
- T/C [17]: 101 % of control
- T/C (dose: 400.0 mg/kg/injection, schedule: Q01DX001 (ip), vehicle: carboxymethylcellulose (CMC)): 103 % of control

Structure (SMILES): O=C(O)c1cc(C(=O)c2ccccn2)c2cccc(C(F)(F)F)c2n1
- T/C [5]: 98 % of control
- T/C [6]: 95 % of control
- T/C [15]: 97 % of control
- T/C [7]: 93 % of control
- T/C (dose: 200.0 mg/kg/injection, schedule: Q04DX003 (ip), vehicle: Klucel (hydroxypropylcellulose) (HPC)): 97 % of control

Structure (SMILES): NS(=O)(=O)c1ccc(NC2OCC(O)C(O)C2O)cc1 (configuration not stated)
- T/C (dose: 100.0 mg/kg/injection, schedule: Q04DX003 (ip), vehicle: saline with Tween-80): 98 % of control
- T/C (dose: 200.0 mg/kg/injection, schedule: Q04DX003 (ip), vehicle: saline with Tween-80): 100 % of control
- T/C (dose: 400.0 mg/kg/injection, schedule: Q04DX003 (ip), vehicle: saline with Tween-80): 102 % of control

Structure (SMILES): CCC1C(CC)N1S(=O)(=O)c1ccccc1 (configuration not stated)
- T/C [10]: 100 % of control
- T/C [11]: 103 % of control

Structure (SMILES): CCSc1ncc(Br)c(Sc2nc(N)nc3nc[nH]c23)n1
- T/C (dose: 1.5 mg/kg/injection, schedule: Q01DX Z (ip), vehicle: carboxymethylcellulose (CMC)): 107 % of control
- T/C (dose: 12.0 mg/kg/injection, schedule: Q01DX Z (ip), vehicle: carboxymethylcellulose (CMC)): 150 % of control
- T/C (dose: 25.0 mg/kg/injection, schedule: Q01DX001 (ip), vehicle: carboxymethylcellulose (CMC)): 121 % of control
- T/C (dose: 25.0 mg/kg/injection, schedule: Q01DX Z (ip), vehicle: methylcellulose (MC)): 86 % of control
- T/C [17]: 116 % of control
